Data: publication PMC12430443, “Discovery of Novel Benzamide-Based Sigma-1 Receptor Agonists with Enhanced Selectivity and Safety” (Molecules, 2025)

Tests used:
S1R = target: T1, S1R (Homo sapiens, UniProt Q99720); assay: S1R competitive radioligand binding, [3H](+)-pentazocine, Jurkat cell membranes; conditions: for Ki: [3H](+)-pentazocine, mean of 2–3 independent experiments; for Ki / IC50: Jurkat cell membranes; for IC50: [3H]-(+)-pentazocine displacement, n = 2; for Ki (S2R)/ Ki (S1R): selectivity ratio S2R/S1R
T1 construct: For the S1R assay, Jurkat cell membranes (10–20 μg protein/tube) were incubated at 37 °C for 2 h; host or cells: Jurkat cell membranes
T1 sequence (Q99720 whole entry): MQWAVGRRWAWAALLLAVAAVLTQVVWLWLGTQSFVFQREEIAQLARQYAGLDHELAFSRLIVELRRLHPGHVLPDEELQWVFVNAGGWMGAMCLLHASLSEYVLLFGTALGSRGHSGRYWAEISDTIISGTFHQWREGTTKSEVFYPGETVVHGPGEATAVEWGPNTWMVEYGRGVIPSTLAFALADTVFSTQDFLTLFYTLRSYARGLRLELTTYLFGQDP
From the text: (§1) S1R and S2R affinities were classically evaluated through competitive binding assays using radioligands, following the protocol described by Ganapathy et al.. The selective radioligand [^3H] (+)-pentazocine was employed as the classic prototypical ligand, selectively binding to the orthosteric S1R-binding sites. […] Jurkat cell membranes served as the receptor source in both assays. The equilibrium dissociation constants (Ki) for S1R and S2R were derived from the IC50 values of each compound, and selectivity ratios (S2R/S1R) were subsequently calculated (Table 1, Figures S2 and S3).
(§2) Binding assays were performed by Eurofins Cerep (Poitiers, France) according to the protocol of Ganapathy. […] For the S2R assay, Jurkat cell membranes (10–20 μg protein/tube) were incubated at room temperature for 1 h in the same buffer with [^3H]-DTG (25 nM) in the presence of (+)-pentazocine (1 μM) to saturate S1R, along with a range of test compound concentrations. Bound radioactivity was quantified by liquid scintillation counting. Nonspecific binding was determined under identical conditions in the presence of 10 μM unlabeled haloperidol. The IC50 values (concentration causing a half-maximal inhibition of control-specific binding) and Hill coefficients (nH) were determined by non-linear regression analysis of the competition curves generated with mean replicate values using Hill equation curve-fitting. This analysis was performed using software developed at Cerep (Hill software) and validated by comparison with data generated by the commercial software SigmaPlot ®4.0 for Windows® (©1997 by SPSS Inc.). Inhibition constants (Ki) were calculated from IC50 values using the method of Cheng and Prusoff.

S2R = target: T2, S2R (Homo sapiens, UniProt Q5BJF2); assay: S2R competitive radioligand binding, [3H]-DTG with excess (+)-pentazocine, Jurkat cell membranes; conditions: for Ki: [3H]-DTG with (+)-pentazocine, mean of 2–3 independent experiments; for IC50: [3H]-DTG displacement with excess (+)-pentazocine, n = 2
T2 construct: For the S2R assay, Jurkat cell membranes (10–20 μg protein/tube) were incubated at room temperature for 1 h; host or cells: Jurkat cell membranes
T2 sequence (Q5BJF2 whole entry): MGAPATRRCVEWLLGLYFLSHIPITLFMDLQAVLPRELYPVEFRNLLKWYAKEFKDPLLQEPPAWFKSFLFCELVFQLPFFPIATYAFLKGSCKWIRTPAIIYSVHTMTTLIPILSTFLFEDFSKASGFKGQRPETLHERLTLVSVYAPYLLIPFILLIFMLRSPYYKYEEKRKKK
From the text: as §1, §2

[1] = system: SH-SY5Y neuroblastoma cells; assay: Cytotoxicity, MTT/MTS assay; format: cell-based, human; conditions: for IC50 (SY5Y)/ Ki (S1R): selectivity index, IC50 was considered > 100 µM
Description: (§3) To assess potential cytotoxicity in CNS-relevant cells, human neuroblastoma (SH-SY5Y) cells were exposed to compounds 2–7 at concentrations up to 100 μM. Cell viability was measured using the MTT assay.
(§4) Cytotoxicity was assessed in human SH-SY5Y neuroblastoma cells cultured in Dulbecco’s Modified Eagle Medium (DMEM, Gibco, Thermo Fisher Scientific Inc., Waltham, MA, USA) supplemented with 2 mM L-glutamine, 100 μg/mL streptomycin, 100 IU/mL penicillin, 1 mM non-essential amino acids (all from Invitrogen, Thermo Fisher Scientific Inc., Waltham, MA, USA), and 10% (v/v) heat-inactivated fetal bovine serum (Sigma-Aldrich, Burlington, MA, USA). Cells were maintained at 37 °C in a humidified 5% CO2 atmosphere and serum-starved for 24 h to synchronize cultures before treatment with the test compounds at final concentrations of 100, 50, 10, 5, 1, 0.5, 0.1, or 0.05 μM (all in <0.1% DMSO). […] Absorbance was measured at 490 nm, and the results were expressed as a percentage relative to untreated control cells (set at 100%).

[2] = Cytotoxicity, MTT/MTS assay; format: cell-based, human; conditions: human, SH-SY5Y neuroblastoma cells; percentage of cell death after 24 h treatment at 100 µM (duplicate); read-out: SY5Y % Cytotox
Description: as §3, §4

histamine H1 receptor = histamine H1 receptor (Homo sapiens, UniProt P35367); parameters: method as in PMID 11897056; conditions: 10 µM; cited from earlier work
muscarinic M1 receptor = muscarinic M1 receptor (Homo sapiens, UniProt P11229); parameters: method as in PMID 11897056; conditions: 10 µM; cited from earlier work
Chain of muscarinic M1 receptor (P11229 whole entry): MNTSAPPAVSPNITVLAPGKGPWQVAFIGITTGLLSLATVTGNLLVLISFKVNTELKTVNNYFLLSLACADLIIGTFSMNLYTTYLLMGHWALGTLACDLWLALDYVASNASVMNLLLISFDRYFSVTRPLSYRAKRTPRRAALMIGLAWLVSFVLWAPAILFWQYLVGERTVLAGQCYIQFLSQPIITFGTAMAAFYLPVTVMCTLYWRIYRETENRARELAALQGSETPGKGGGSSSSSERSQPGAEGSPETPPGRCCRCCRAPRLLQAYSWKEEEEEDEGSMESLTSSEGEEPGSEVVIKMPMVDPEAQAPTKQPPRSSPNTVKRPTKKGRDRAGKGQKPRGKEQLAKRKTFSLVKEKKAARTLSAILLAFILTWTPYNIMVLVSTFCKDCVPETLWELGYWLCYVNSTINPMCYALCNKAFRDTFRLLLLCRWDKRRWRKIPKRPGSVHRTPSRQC

Caco-2 cell line = system: Caco-2 cell line; parameters: method as in PMID 36233193; conditions: 10 µM, cited from earlier work
[3] = parameters: method as in PMID 36233193; conditions: 10 µM; cited from earlier work
[4] = parameters: method as in PMID 36233193; conditions: cited from earlier work
[5] = parameters: method as in PMID 36233193; conditions: 10 µM; cited from earlier work; remark: listed apart in the source
CYP1A = system: CYP1A; parameters: method as in PMID 36233193; conditions: at 10 µM; cited from earlier work
CYP2C19 = target: T3, CYP2C19 (Homo sapiens, UniProt P33261); parameters: method as in PMID 36233193; conditions: at 10 µM; cited from earlier work
T3 construct: tissue Eurofins Cerep (assay provider); host or cells: human liver microsomes
T3 sequence (P33261 whole entry): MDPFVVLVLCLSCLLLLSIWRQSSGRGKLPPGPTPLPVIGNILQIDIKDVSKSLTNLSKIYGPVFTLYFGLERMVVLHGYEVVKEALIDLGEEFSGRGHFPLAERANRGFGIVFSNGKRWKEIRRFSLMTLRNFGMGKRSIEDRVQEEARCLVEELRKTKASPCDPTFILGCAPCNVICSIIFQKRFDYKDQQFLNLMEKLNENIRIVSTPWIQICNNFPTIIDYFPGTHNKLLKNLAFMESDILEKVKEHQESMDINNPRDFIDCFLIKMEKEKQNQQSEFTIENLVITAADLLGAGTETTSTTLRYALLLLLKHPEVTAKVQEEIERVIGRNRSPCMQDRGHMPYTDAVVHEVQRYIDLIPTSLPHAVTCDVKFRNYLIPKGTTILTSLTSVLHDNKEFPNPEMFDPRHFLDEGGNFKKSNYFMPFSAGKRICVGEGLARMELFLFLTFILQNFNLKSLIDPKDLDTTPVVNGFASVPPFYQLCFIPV

CYP3A = system: CYP3A; parameters: method as in PMID 36233193; conditions: at 10 µM; cited from earlier work
MRP2 = MRP2 (Homo sapiens, UniProt Q92887); parameters: method as in PMID 36233193; conditions: at 10 µM; ABC family; cited from earlier work
Chain of MRP2 (Q92887 whole entry): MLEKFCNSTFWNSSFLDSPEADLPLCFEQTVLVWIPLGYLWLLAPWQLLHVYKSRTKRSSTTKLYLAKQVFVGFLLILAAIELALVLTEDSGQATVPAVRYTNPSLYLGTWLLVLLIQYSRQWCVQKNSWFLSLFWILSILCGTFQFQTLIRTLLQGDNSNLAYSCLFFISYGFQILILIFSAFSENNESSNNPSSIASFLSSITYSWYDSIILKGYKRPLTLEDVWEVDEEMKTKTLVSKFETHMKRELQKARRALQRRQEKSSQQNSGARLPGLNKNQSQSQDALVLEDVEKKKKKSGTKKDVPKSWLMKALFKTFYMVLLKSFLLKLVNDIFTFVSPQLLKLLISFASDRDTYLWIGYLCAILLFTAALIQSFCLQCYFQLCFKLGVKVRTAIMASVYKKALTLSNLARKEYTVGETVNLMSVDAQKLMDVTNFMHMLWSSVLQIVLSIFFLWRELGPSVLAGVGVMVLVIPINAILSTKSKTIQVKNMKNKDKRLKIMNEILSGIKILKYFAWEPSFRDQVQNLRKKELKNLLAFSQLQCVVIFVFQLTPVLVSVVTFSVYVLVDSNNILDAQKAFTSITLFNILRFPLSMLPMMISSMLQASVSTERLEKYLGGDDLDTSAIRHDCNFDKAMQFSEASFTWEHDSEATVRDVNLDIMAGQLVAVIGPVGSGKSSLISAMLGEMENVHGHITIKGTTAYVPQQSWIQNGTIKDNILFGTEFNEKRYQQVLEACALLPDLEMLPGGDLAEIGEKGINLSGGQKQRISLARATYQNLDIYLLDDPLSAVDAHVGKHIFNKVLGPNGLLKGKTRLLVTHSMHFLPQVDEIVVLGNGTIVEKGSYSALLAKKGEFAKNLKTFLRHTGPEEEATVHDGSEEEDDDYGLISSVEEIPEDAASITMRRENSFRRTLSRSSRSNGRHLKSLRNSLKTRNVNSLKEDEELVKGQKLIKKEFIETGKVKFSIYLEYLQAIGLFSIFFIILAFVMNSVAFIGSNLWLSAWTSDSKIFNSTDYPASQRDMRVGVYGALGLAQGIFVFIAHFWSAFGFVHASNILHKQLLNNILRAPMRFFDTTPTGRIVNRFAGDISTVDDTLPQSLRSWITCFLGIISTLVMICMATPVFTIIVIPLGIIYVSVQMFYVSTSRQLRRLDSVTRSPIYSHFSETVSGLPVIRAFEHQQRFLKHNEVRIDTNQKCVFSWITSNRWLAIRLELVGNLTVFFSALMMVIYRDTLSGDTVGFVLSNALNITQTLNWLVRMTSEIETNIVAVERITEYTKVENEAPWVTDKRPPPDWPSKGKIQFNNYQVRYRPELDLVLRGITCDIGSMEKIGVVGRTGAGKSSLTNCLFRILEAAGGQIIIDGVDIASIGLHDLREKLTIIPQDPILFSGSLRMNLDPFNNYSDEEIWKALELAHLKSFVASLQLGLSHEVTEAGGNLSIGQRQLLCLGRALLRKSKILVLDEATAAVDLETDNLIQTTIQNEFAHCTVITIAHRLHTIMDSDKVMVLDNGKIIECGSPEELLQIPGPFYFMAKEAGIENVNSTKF

hERG channel = target: T4, hERG channel (Homo sapiens, UniProt Q12809); parameters: method as in PMID 36233193; conditions: ratio; cited from earlier work
T4 construct: host or cells: CHO-K1

adrenergic α1a receptor = adrenergic α1a receptor (Homo sapiens, UniProt P35348); assay: Off-target panel, aequorin functional assay; format: cell-based; conditions: 10 µM, duplicate; % inhibition of reference agonist activity
Description: (§5) Among the synthesized compounds, four derivatives were selected based on their affinity and selectivity profiles. […] The remaining compounds (2, 3, 6, and 7) were assessed for their agonist and antagonist activities across a panel of 58 receptors relevant to CNS disorders, including serotonin, adenosine, adrenergic, cannabinoid, dopamine, histamine, and muscarinic receptors. These assays were conducted at a concentration of 10 µM, in duplicate, utilizing aequorin [19], cAMP HTRF™ [20], and GTPγS binding assays, as detailed in Table 2. […] Specifically, compound 6 antagonized four receptors (5-HT2A, 5-HT2C, α1a, H1), while compound 7 was active against five receptors (5-HT2A, 5-HT3, α1a, H1, M1).
(§6) Rapidly, the tests were performed by Euroscreen (https://euroscreenfast.com/) with recombinant human G-coupled receptor-expressing cell lines using aequorin functional assays for serotonin 5-HT2A, 5-HT2B, 5-HT2C, 5-HT3, and 5-HT5A, adrenergic α1a and α1b, angiotensin AT1, cholesistokinin CCFK1, endothelin ETA, histamine H1, muscarinic M1 and M3, neurokinin NK1 and NK2, vasopressin V1a, and vasoactive intestinal peptide VPAC1 receptor analysis. Then, cAMP HTRF^TM assays were used to analyze serotonin 5-HT1A, 5-HT4E, 5-HT6, and 5-HT7, adenosine A1, A2A, and A3, adrenergic β1 and β2, cannabinoid CB1, dopamine D1, histamine H2, and neuropeptide Y NPY receptors. GTPγS^35 assays were used to analyze serotonin 5-HT1B, adrenergic α2a and α2b, dopamine D2, muscarinic M2 and M4, opioid δ, κ and µ, and somatostatine SST4 receptors.
(§7) Agonist and antagonist activities of the test compound are expressed as the percentage of the activity of the reference agonist at its EC100 concentration or the percentage of inhibition of the reference agonist activity at its EC80 concentration, respectively.
(§8) For the aequorin assays, different cell lines co-expressing the receptors were grown in specific culture media and incubated for 4 h with coelenterazine h. For agonist testing, cell suspensions were mixed with test or reference agonists in a 96-well plate. For antagonist testing, the reference agonist at its EC80 (final concentration) was injected to the mix the containing cells and the tested compound. The resulting emission of light was recorded using the Hamamatsu Functional Drug Screening System 6000 [19].

adrenergic α1b receptor = adrenergic α1b receptor (Homo sapiens, UniProt P35368); assay: Off-target panel, aequorin functional assay; format: cell-based; conditions: 10 µM, duplicate; % inhibition of reference agonist activity
Description: as §5, §6, §7, §8

[6] = target: serotonin 5-HT2C receptor (Homo sapiens, UniProt P28335); assay: Off-target panel, aequorin functional assay; format: cell-based; conditions: 10 µM, duplicate; % inhibition of reference agonist activity
Chain of serotonin 5-HT2C receptor (P28335 33-458): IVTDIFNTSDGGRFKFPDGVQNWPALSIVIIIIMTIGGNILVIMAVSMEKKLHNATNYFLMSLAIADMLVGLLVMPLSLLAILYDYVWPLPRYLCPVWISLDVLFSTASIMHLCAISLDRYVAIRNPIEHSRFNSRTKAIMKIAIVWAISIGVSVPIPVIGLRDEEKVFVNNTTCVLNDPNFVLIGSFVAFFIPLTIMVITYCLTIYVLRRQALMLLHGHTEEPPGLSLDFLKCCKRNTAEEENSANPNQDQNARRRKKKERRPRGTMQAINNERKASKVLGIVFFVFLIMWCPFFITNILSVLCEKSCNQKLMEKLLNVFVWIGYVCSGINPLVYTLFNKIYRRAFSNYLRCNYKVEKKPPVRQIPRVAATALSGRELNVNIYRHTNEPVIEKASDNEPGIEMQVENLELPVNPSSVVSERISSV
Description: as §5, §6, §7, §8

serotonin 5-HT3 receptor = serotonin 5-HT3 receptor (Homo sapiens, UniProt P46098); assay: Off-target panel, aequorin functional assay; format: cell-based; conditions: 10 µM, duplicate; % inhibition of reference agonist activity
Chain of serotonin 5-HT3 receptor (P46098 24-478): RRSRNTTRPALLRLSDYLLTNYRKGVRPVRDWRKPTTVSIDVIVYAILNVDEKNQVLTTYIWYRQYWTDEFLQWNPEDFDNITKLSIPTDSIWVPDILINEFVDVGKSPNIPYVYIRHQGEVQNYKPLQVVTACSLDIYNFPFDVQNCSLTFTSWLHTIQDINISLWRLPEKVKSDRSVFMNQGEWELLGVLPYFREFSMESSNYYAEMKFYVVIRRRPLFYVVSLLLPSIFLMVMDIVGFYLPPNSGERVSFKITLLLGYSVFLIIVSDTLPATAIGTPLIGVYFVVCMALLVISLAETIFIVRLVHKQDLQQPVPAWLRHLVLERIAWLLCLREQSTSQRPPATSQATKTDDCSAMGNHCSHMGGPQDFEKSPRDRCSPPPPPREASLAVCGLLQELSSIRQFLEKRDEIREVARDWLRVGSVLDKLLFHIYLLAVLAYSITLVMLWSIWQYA
Description: as §5, §6, §7, §8

CXCR1 = CXCR1 (Homo sapiens, UniProt P25024); assay: Off-target panel of recombinant human receptors; format: cell-based; conditions: 10 µM, duplicate; % inhibition of reference agonist activity
Chain of CXCR1 (P25024 whole entry): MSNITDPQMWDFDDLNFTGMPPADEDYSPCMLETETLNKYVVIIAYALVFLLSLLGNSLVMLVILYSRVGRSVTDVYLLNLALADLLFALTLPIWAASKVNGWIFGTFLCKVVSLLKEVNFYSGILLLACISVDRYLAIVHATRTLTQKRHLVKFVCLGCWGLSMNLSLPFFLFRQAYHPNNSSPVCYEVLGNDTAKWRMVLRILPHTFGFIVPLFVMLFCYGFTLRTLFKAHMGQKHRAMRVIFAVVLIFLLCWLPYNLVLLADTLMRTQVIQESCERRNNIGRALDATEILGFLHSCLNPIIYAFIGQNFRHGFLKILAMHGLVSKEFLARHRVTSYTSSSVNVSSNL
Description: as §5, §7

D4.4 = D4.4 (Homo sapiens, UniProt P21917); assay: Off-target panel of recombinant human receptors; format: cell-based; conditions: 10 µM, duplicate; % inhibition of reference agonist activity
Chain of D4.4 (P21917 whole entry): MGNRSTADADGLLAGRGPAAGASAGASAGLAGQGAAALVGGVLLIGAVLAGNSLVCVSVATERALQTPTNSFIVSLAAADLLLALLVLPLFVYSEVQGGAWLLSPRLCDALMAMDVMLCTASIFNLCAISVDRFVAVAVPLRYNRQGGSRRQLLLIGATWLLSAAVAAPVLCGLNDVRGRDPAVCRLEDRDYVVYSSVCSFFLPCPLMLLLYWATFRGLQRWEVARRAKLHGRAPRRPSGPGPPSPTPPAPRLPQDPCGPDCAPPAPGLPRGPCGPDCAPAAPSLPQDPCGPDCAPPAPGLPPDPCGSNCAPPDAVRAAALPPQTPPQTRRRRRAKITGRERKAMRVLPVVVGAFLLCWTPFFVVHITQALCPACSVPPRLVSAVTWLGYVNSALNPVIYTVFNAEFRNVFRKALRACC
Description: as §5, §7

S1R-BiP complex = target: T5, S1R-BiP complex (Cricetulus griseus, UniProt A0A3L7I3A5); assay: S1R-BiP complex dissociation, co-immunoprecipitation and BiP ELISA in CHO cells; format: cell-based; conditions: for S1R-BiP complex levels: 10 µM
T5 construct: host or cells: CHO cells
T5 sequence (A0A3L7I3A5 1-223, one chain of several): as the sequence (Q99720 whole entry) above, with A4S, V5L, A12I, L15F, V25A, S34N, R39Q counted along it
Description: The interaction between S1R and BiP provides a reliable assay to identify S1R ligands by monitoring the dynamics of the S1R-BiP complex. In this assay, the known S1R agonist PRE-084 and antagonist NE-100 were used as controls (Figure 3).
The ability of the compounds to promote dissociation of the S1R–BiP complex was assessed by Amylgen (Montferrier-sur-Lez, France) as described in [22, 23]. CHO cells were treated with the test compounds for 30 min at 37 °C, followed by crosslinking with dithiobis(succinimidyl propionate) (DSP; Thermo Scientific, Waltham, MA, USA). Cells were lysed after 15 min on ice, and the lysates were centrifuged. Supernatants were incubated overnight at 4 °C with an anti-S1R antibody (Abcam, Cambridge, UK), and then with Protein A-Sepharose (Invitrogen). After the first centrifugation, pellets were resuspended in radioimmunoprecipitation assay (RIPA) buffer, centrifuged again, and resuspended in 2× sample buffer/bMCE buffer. Following a third centrifugation, the supernatants were analyzed for BiP immunoreactivity using an ELISA kit (SEC343Mu, USCNK Life Sciences, Wuhan, China).
Figure 3 In vitro evaluation of agonist activity of compounds 2, 3, and 6: The effects of compounds 2, 3, and 6 at 1 and 10 µM on the S1R-BiP association after 30 min of incubation were analyzed by co-immunoprecipitation using an anti-S1R antibody (red). BiP levels were quantified by ELISA. PRE-084 (white) and NE-100 (black) served as the reference agonist and antagonist, respectively (10 µM). Agonist activity was confirmed by its blockade with NE-100 (black hatching). […] Data represent the mean ± SEM from n = 6 per condition. Statistical significance was assessed using Dunnett’s test: *** p < 0.0001, * p < 0.05 vs. untreated control; ### p < 0.0001, # p < 0.05 for NE-100 blockade.

3-(Benzylmethylamino)-N-(3-bromobenzyl)propanamide [Compound 4]
Ki (S1R): > 200 nM | Ki (S2R): > 200 nM | SY5Y % Cytotox ([1]; 100 µM): 6%

CN(CCCNC(=O)c1ccc(Cl)cc1)Cc1ccccc1 [Compound 1]
Ki (S1R): 3.2 nM | IC50 (S1R): 6.3 nM | IC50 (S2R): 255 nM | Ki (S2R): 190 nM | cytotoxicity at 24 h, 100 µM [2]: 28% | IC50 (SY5Y)/ Ki (S1R) [1]: >31,250 | H1 activity (in words) (histamine H1 receptor): no activity | M1 antagonist activity (in words) (muscarinic M1 receptor): antagonist activity | Permeability A/B pH7.4/7.4 (Caco-2 cell line; Caco-2): 29.1 ×10^−6 cm/s | Permeability B/A pH7.4/7.4 (Caco-2 cell line; Caco-2): 66.1 ×10^−6 cm/s | e-ratio (Caco-2 cell line; efflux ratio Papp(B→A)/Papp(A→B)): 2.3 | Plasma protein binding [3]: 94% | Mouse plasma t1/2 [4]: 25.9 h | Human liver microsome half-life t1/2 [5]: >1 h | CYP inhibition 1A (CYP1A): 2.1% | CYP inhibition 2C19 (CYP2C19): 36.2% | CYP inhibition 3A (CYP3A): 36.9% | Drug transport inhibition MRP2 (MRP2): −18.6% | IC50 (hERG)/Ki (σ1) (hERG channel): 312

CN(CCC(=O)NCc1ccc(Cl)cc1)Cc1ccccc1 [Compound 3, 3-(Benzylmethylamino)-N-(4-chlorobenzyl)propanamide]
IC50 (S1R): 3.3 nM | Ki (S2R)/ Ki (S1R) (S1R): 241 | IC50 (S2R): 540 nM | cytotoxicity at 24 h, 100 µM [2]: 1% | IC50 (SY5Y)/ Ki (S1R) [1]: >58,823 | α1a [b] antagonist activity (adrenergic α1a receptor): 88% | α1b [b] antagonist activity (adrenergic α1b receptor): 65% | 5-HT2C [b] antagonist activity [6]: 76% | 5-HT3 [b] antagonist activity (serotonin 5-HT3 receptor): 72% | CXCR1 [b] antagonist activity (CXCR1): 54% | D4.4 [b] antagonist activity (D4.4): 84% | Dissociation of the S1R-BiP complex (in words) (S1R-BiP complex; 1 and 10 µM, 30 min incubation, CHO cells, n = 6): significant, dose-dependent dissociation | Dissociation of S1R-BiP complex in the presence of NE-100 (in words) (S1R-BiP complex; co-treatment with NE-100 (10 µM)): completely inhibited

CN(CCC(=O)NCc1ccc(Cl)cc1Cl)Cc1ccccc1 [Compound 5, 3-(Benzylmethylamino)-N-(2,4-Dichlorobenzyl)propanamide]
IC50 (S1R): 4.5 nM | Ki (S2R)/ Ki (S1R) (S1R): 52 | IC50 (S2R): 160 nM | cytotoxicity at 24 h, 100 µM [2]: 37% | IC50 (SY5Y)/ Ki (S1R) [1]: >43,478

CN(CCC(=O)NCc1ccc([N+](=O)[O-])cc1)Cc1ccccc1 [Compound 7, 3-(Benzylmethylamino)-N-(4-Nitrobenzyl)propanamide]
Ki (S1R): 110 nM | IC50 (S1R): 220 nM | Ki (S2R)/ Ki (S1R) (S1R): 59 | IC50 (S2R): 8600 nM | cytotoxicity at 24 h, 100 µM [2]: 9% | IC50 (SY5Y)/ Ki (S1R) [1]: >909

CCCN(CCC)CCc1ccc(OC)c(OCCc2ccccc2)c1 [NE-100, reference compound]
S1R-BiP complex levels (S1R-BiP complex; 30 min incubation, CHO cells): 90–100 % of the control

O=C(OCCN1CCOCC1)C1(c2ccccc2)CCCCC1 [PRE-084, reference compound]
S1R-BiP complex levels (S1R-BiP complex; 30 min incubation, CHO cells): less than 50 % of the control
